SMILES strings stand for the structures. Where a name gives a salt, the structure may show the parent alone.

mGluR5 receptor, sequence (I3LUI7 19-1212): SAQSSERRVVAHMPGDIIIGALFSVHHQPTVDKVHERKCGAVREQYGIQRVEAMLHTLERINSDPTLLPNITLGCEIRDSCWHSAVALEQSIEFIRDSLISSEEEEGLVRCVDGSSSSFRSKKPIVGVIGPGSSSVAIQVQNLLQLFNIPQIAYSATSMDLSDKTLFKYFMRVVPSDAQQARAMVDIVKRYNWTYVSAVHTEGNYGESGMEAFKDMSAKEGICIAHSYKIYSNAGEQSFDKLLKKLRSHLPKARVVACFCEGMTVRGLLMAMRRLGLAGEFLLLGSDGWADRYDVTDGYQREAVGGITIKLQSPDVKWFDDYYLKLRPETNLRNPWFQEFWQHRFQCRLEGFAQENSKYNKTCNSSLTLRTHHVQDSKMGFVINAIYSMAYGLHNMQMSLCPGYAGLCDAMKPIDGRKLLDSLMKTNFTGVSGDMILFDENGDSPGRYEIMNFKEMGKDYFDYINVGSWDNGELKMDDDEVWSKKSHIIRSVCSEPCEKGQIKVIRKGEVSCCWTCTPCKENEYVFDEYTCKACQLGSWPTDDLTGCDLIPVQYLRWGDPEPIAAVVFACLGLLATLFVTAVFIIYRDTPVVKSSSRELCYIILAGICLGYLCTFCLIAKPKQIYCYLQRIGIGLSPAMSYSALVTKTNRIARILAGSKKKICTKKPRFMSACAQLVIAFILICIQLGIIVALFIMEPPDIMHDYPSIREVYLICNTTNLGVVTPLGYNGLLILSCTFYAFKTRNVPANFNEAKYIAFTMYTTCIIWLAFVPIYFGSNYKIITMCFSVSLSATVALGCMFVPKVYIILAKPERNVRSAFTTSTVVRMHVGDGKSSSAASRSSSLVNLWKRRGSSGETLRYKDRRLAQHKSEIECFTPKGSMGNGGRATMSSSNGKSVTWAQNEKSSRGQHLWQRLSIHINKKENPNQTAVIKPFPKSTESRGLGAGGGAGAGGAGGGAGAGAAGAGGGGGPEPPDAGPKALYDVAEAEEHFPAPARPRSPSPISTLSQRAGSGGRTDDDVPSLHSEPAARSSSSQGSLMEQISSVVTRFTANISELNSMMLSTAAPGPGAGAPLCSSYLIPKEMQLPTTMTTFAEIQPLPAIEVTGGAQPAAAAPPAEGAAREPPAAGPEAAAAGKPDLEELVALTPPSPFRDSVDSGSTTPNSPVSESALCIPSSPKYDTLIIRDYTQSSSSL

The first assay concerns the target mGluR5 receptor (Sus scrofa, UniProt I3LUI7). The assay can be described thus: Affinity for the mGluR5 receptor: inhibition of 3[H]-MPEP binding in pig brain homogenate. As to conditions: 10 μM compound, 5 nM 3[H]-MPEP, read-out: mGluR5 receptor inhibition of ^3[H]-MPEP binding [10 μM] in % at a concentration of the example compounds of 10 μM. Summed up:
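Test compounds were screened at 10 μM for displacement of 5 nM [3H]-MPEP from pig brain homogenate (450 μg protein, pH 8.0 Hepes buffer) over 60 min at room temperature. After filtration, scintillation counting gave the read-out. 10 μM unlabelled MPEP set nonspecific binding.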
On to `Cc1cccc(C#Cc2cccc(-c3nc4ccc(Cl)cn4c3NC3CCCCC3)c2)n1` [Example 193, 6-chloro-N-cyclohexyl-2-(3-((6-methylpyridin-2-yl)ethynyl)phenyl)imidazo[1,2-a]pyridin-3-amine], for which the inhibition at 10 µM turned out to be 79%.

Take `Cc1cc(C)n2c(NCCc3ccccc3)c(-c3ccc(C#Cc4ccccc4)s3)nc2n1` [Example 194, 5,7-dimethyl-N-phenethyl-2-(5-(phenylethynyl)thiophen-2-yl)imidazo[1,2-a]pyrimidin-3-amine]: the inhibition at 10 µM amounted to 30%.

On to `COc1cccc(CCNc2c(-c3ccc(C#Cc4ccccc4)s3)nc3nc(C)cc(C)n23)c1` [Example 195, N-(3-methoxyphenethyl)-5,7-dimethyl-2-(5-(phenylethynyl)thiophen-2-yl)imidazo[1,2-a]pyrimidin-3-amine], for which the inhibition at 10 µM was found to be 53%.

Regarding `COc1cccc(CCNc2c(-c3cc(C#Cc4ccccc4)cs3)nc3nc(C)cc(C)n23)c1` [Example 196, N-(3-methoxyphenethyl)-5,7-dimethyl-2-(4-(phenylethynyl)thiophen-2-yl)imidazo[1,2-a]pyrimidin-3-amine], the inhibition at 10 µM was 68%.

For the compound `COc1cccc(CCNc2c(-c3ccc(C#Cc4ccccc4)o3)nc3nc(C)cc(C)n23)c1` [Example 197, N-(3-methoxyphenethyl)-5,7-dimethyl-2-(5-(phenylethynyl)furan-2-yl)imidazo[1,2-a]pyrimidin-3-amine], the inhibition at 10 µM stood at 31%.

In the case of `Cc1cccn2c(NCc3ccc(Cl)cc3)c(-c3ccc(C#Cc4ccccc4)s3)nc12` [Example 198, N-(4-chlorobenzyl)-8-methyl-2-(5-(phenylethynyl)thiophen-2-yl)imidazo[1,2-a]pyridin-3-amine], the inhibition at 10 µM was 67%.

For `COc1cccc(CCNc2c(-c3cc(C#Cc4ccccc4)cs3)nc3cccc(C)n23)c1` [Example 199, N-(3-methoxyphenethyl)-5-methyl-2-(4-(phenylethynyl)thiophen-2-yl)imidazo[1,2-a]pyridin-3-amine], the inhibition at 10 µM is 57%.

As for `CCCCC(C)(C)Nc1c(-c2cc(C#Cc3ccccc3)cs2)nc2cnccn12` [Example 200, N-(2-methylhexan-2-yl)-2-(4-(phenylethynyl)thiophen-2-yl)imidazo[1,2-a]pyrazin-3-amine], the inhibition at 10 µM was determined as 62%.

Regarding `C(#Cc1csc(-c2nc3cnccn3c2NCCc2ccccc2)c1)c1ccccc1` [Example 201, N-phenethyl-2-(4-(phenylethynyl)thiophen-2-yl)imidazo[1,2-a]pyrazin-3-amine], the inhibition at 10 µM was found to be 55%.

As to `COc1cccc(CCNc2c(-c3cc(C#Cc4ccccc4)cs3)nc3cnccn23)c1` [Example 202, N-(3-methoxyphenethyl)-2-(4-(phenylethynyl)thiophen-2-yl)imidazo[1,2-a]pyrazin-3-amine], the inhibition at 10 µM turned out to be 70%.

As for `C(#Cc1csc(-c2nc3cnccn3c2NCCc2cccs2)c1)c1ccccc1` [Example 203, 2-(4-(phenylethynyl)thiophen-2-yl)-N-(2-(thiophen-2-yl)ethyl)imidazo[1,2-a]pyrazin-3-amine], the inhibition at 10 µM amounted to 60%.

Regarding `Clc1ccc(CNc2c(-c3ccc(C#Cc4ccccc4)s3)nc3ccccn23)cc1` [Example 204, N-(4-chlorobenzyl)-2-(5-(phenylethynyl)thiophen-2-yl)imidazo[1,2-a]pyridin-3-amine], the inhibition at 10 µM stood at 30%.

With `CCCC(C)(C)Nc1c(-c2ccc(C#Cc3ccccc3)s2)nc2cnccn12` [Example 205, N-(2-methylpentan-2-yl)-2-(5-(phenylethynyl)thiophen-2-yl)imidazo[1,2-a]pyrazin-3-amine], the inhibition at 10 µM is 92%.

`C(#Cc1csc(-c2nc3cnccn3c2NCC2CCCCC2)c1)c1ccccc1` [Example 206, N-(cyclohexylmethyl)-2-(4-(phenylethynyl)thiophen-2-yl)imidazo[1,2-a]pyrazin-3-amine]: the inhibition at 10 µM came out at 63%.

Consider `COc1ccccc1CNc1c(-c2ccc(C#Cc3ccccc3)o2)nc2cnccn12` [Example 207, N-(2-methoxybenzyl)-2-(5-(phenylethynyl)furan-2-yl)imidazo[1,2-a]pyrazin-3-amine], for which the inhibition at 10 µM was found to be 35%.

As to `C(#Cc1csc(-c2nc3ccccn3c2NCC2CCCCC2)c1)c1ccccc1` [Example 208, N-(cyclohexylmethyl)-2-(4-(phenylethynyl)thiophen-2-yl)imidazo[1,2-a]pyridin-3-amine], the inhibition at 10 µM came to 57%.

Turning to `CCCC(C)(C)Nc1c(-c2cc(C#Cc3ccccc3)cs2)nc2ccccn12` [Example 209, N-(2-methylpentan-2-yl)-2-(4-(phenylethynyl)thiophen-2-yl)imidazo[1,2-a]pyridin-3-amine], the inhibition at 10 µM worked out at 55%.

Turning to `Cc1cc(Br)c2nc(-c3cccc(C#Cc4cccc(C)n4)c3)c(NC(C)(C)CC(C)(C)C)n2c1` [Example 210, 8-bromo-6-methyl-2-(3-((6-methylpyridin-2-yl)ethynyl)phenyl)-N-(2,4,4-trimethylpentan-2-yl)imidazo[1,2-a]pyridin-3-amine], the inhibition at 10 µM turned out to be 68%.

In the case of `Cc1cc(Br)c2nc(-c3cccc(C#Cc4ccccn4)c3)c(NC3CCCC3)n2c1` [Example 211, 8-bromo-N-cyclopentyl-6-methyl-2-(3-(pyridin-2-ylethynyl)phenyl)imidazo[1,2-a]pyridin-3-amine], the inhibition at 10 µM was found to be 82%.

Turning to `C(#Cc1csc(-c2nc3cnccn3c2NC2CCCC2)c1)c1ccccc1` [Example 212, N-cyclopentyl-2-(4-(phenylethynyl)thiophen-2-yl)imidazo[1,2-a]pyrazin-3-amine], the inhibition at 10 µM stood at 90%.

Still in this assay, the particulars now being: 3[H]-MPEP binding.
What is called IC50 is the concentration at which inhibition is half-maximal. For the compound `CC(C)(C)Nc1c(-c2ccc(C#Cc3ccc(F)cn3)s2)nc2cnccn12` [Example 169, N-tert-butyl-2-(5-((5-fluoropyridin-2-yl)ethynyl)thiophen-2-yl)imidazo[1,2-a]pyrazin-3-amine hydrochloride], the half-maximal inhibitory concentration (IC50) was found to be 11 nM. In other words, the double-digit nanomolar range.

`COc1cncc(C#Cc2ccc(-c3nc4cnccn4c3NC(C)(C)C)s2)c1` [Example 171, N-tert-butyl-2-(5-((5-methoxypyridin-3-yl)ethynyl)thiophen-2-yl)imidazo[1,2-a]pyrazin-3-amine hydrochloride] yielded an IC50 of 360 nM.

`CC(C)(C)Nc1c(-c2ccc(C#Cc3cncc(C#N)c3)s2)nc2cnccn12` [Example 172, 5-((5-(3-(tert-butylamino)imidazo[1,2-a]pyrazin-2-yl)thiophen-2-yl)ethynyl)nicotinonitrile hydrochloride] had an IC50 of 36 nM.

`CSc1cccc(C#Cc2ccc(-c3nc4cnccn4c3NC(C)(C)C)s2)c1` [Example 173, N-tert-butyl-2-(5-((3-(methylthio)phenyl)ethynyl)thiophen-2-yl)imidazo[1,2-a]pyrazin-3-amine] registered an IC50 of 800 nM.

Take `COC(=O)c1cccc(C#Cc2ccc(-c3nc4cnccn4c3NC(C)(C)C)s2)c1` [Example 174, methyl-3-((5-(3-(tert-butylamino)imidazo[1,2-a]pyrazin-2-yl)thiophen-2-yl)ethynyl)benzoate]: the IC50 came to 840 nM.

`CC(C)(C)Nc1c(-c2ccc(C#Cc3ncc(F)cc3F)s2)nc2cnccn12` [Example 175, N-tert-butyl-2-(5-((3,5-difluoropyridin-2-yl)ethynyl)thiophen-2-yl)imidazo[1,2-a]pyrazin-3-amine] registered a concentration for half-maximal inhibition (IC50) of 51 nM.

In the case of `CC(C)(C)Nc1c(-c2cnc(C#Cc3ccncc3)s2)nc2cnccn12` [Example 177, N-tert-butyl-2-(2-(pyridin-4-ylethynyl)thiazol-5-yl)imidazo[1,2-a]pyrazin-3-amine], the IC50 was determined as 16 nM.

As to `CC(C)(C)Nc1c(-c2ccc(C#Cc3cccc(C=O)c3)s2)nc2cnccn12` [Example 178, 3-((5-(3-(tert-butylamino)imidazo[1,2-a]pyrazin-2-yl)thiophen-2-yl)ethynyl)benzaldehyde], the IC50 was 24 nM.

`CC(C)(C)Nc1c(-c2ccc(C#Cc3cc(C#N)ccc3F)s2)nc2cnccn12` [Example 179, 3-((5-(3-(tert-butylamino)imidazo[1,2-a]pyrazin-2-yl)thiophen-2-yl)ethynyl)-4-fluorobenzonitrile] registered an IC50 of 26 nM.

Take `CC(C)(C)Nc1c(-c2ccc(C#Cc3cccc(C(F)(F)F)c3)s2)nc2cnccn12` [Example 180, N-tert-butyl-2-(5-((3-(trifluoromethyl)phenyl)ethynyl)thiophen-2-yl)imidazo[1,2-a]pyrazin-3-amine hydrochloride]: the IC50 was 580 nM.

`CC(C)(C)Nc1c(-c2cnc(C#Cc3ccccn3)s2)nc2cnccn12` [Example 181, N-tert-butyl-2-(2-(pyridin-2-ylethynyl)thiazol-5-yl)imidazo[1,2-a]pyrazin-3-amine]: the half-inhibitory concentration (IC50) is 18 nM.

`Cc1cc(C#Cc2ccccc2)sc1-c1nc2cnccn2c1NC(C)(C)C` [Example 182, N-tert-butyl-2-(3-methyl-5-(phenylethynyl)thiophen-2-yl)imidazo[1,2-a]pyrazin-3-amine hydrochloride]: the IC50 worked out at 8850 nM.

In turn, `Cc1cc(C#Cc2ccccn2)sc1-c1nc2cnccn2c1NC(C)(C)C` [Example 183, N-tert-butyl-2-(3-methyl-5-(pyridin-2-ylethynyl)thiophen-2-yl)imidazo[1,2-a]pyrazin-3-amine hydrochloride] gave an IC50 of 230 nM.

Turning to `C=Cc1cccc(C#Cc2ccc(-c3nc4cnccn4c3NC(C)(C)C)s2)c1` [Example 184, N-tert-butyl-2-(5-((3-vinylphenyl)ethynyl)thiophen-2-yl)imidazo[1,2-a]pyrazin-3-amine], the concentration for half-maximal inhibition (IC50) turned out to be 270 nM.

In turn, `CC(C)(C)Nc1c(-c2ccc(C#Cc3c[nH]cn3)s2)nc2cnccn12` [Example 185, 2-(5-((1H-imidazol-4-yl)ethynyl)thiophen-2-yl)-N-tert-butylimidazo[1,2-a]pyrazin-3-amine hydrochloride] registered an IC50 of 190 nM.

The values above are taken from patent publication US7420056B2, “Substituted bicyclic imidazo-3-ylamine compounds” (Gruenenthal GmbH, priority 2004, dated 2008).
